Measurements as given in patent publication US20050261290A1, “Novel compounds of proline and morpholine derivatives” (priority 2004, published 2005).
pKi: −log10 of the molar value. Read-outs that look alike come from different tables or passages of the source.

Biological target: human 11b-hsd-1 (Homo sapiens, UniProt P28845)
Experiment: Inhibition constant Ki of human 11b-hsd-1 (3H-cortisone to 3H-cortisol conversion, HPLC)
Assay type: biochemical
Conditions: for pKi: apparent Ki, read-out: Ki app

human 11b-hsd-1, sequence (P28845 whole entry): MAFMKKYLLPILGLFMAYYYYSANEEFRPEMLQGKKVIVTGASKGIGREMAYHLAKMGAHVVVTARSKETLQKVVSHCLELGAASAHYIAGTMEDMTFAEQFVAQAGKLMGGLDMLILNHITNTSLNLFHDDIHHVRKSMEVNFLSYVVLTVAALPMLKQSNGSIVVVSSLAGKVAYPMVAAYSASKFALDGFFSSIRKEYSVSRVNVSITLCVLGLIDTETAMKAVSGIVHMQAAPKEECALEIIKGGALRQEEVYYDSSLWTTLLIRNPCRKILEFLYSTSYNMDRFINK

SMILES	inhibition at 0.1 µM (0.1 μM compound) [%]	pKi	inhibition at 0.1 µM (compound at 0.1 μM) [%]	pKi (human 11b-hsd-1)
C[C@@H](NC(=O)[C@H]1CCCN1CC1CCCC1)c1ccccc1 [Example 292]	92.1	8.02	–	–
O=C(NCc1ccc(Cl)cc1)[C@H]1CCCN1CC1CCCC1 [Example 227]	80.3	7.44	–	–
Cc1cccc(O[C@@H]2CN[C@H](C(=O)NC3C4CC5CC(C4)CC3C5)C2)c1 (stereo partly shown) [Example 348]	100	8.57	–	–
CS(=O)(=O)N1CCC[C@@H]1CN1CCC[C@@H]1C(=O)NC1C2CC3CC(C2)CC1C3 (stereo partly shown) [Example 134]	–	–	96	–
CCCN1CCC[C@@H]1C(=O)NCc1ccc(OC)cc1 [Example 218]	91.1	5.60	–	–
O=C(NC1CCCCC1)[C@H]1CCCN1CCC(F)(F)F [Example 127]	–	–	100	–
CN(C(=O)[C@@H]1CSCN1Cc1ccc(Cl)cc1)C1CCCCC1 [Example 192]	100	8.02	–	–
CC(C)CN1CCC[C@@H]1C(=O)NCc1ccccc1F [Example 220]	96.7	8.29	–	–
CC(C)Oc1ccccc1O[C@@H]1CN[C@H](C(=O)NC2C3CC4CC(C3)CC2C4)C1 (stereo partly shown) [Example 364]	100	8.34	–	–
CCCN1CCC[C@@H]1C(=O)NC1CC2CCC1C2 (stereo partly shown) [Example 91]	–	–	100	–
CCCCN1CCC[C@@H]1C(=O)NC1CCCCC1 [Example 100]	–	–	100	8.40
CCN1CCC(CN2CCOC[C@@H]2C(=O)NC2C3CC4CC(C3)CC2C4)CC1 (stereo partly shown) [Example 75]	–	–	91	–
O=C(NCc1ccc(Cl)cc1)[C@H]1CCCN1CC1CCCCC1 [Example 13]	–	–	85	9.00
O=C(NC1CCCCC1)[C@H]1CCCN1CC(F)(F)F [Example 101]	–	–	100	8.30
O=C(NC1CCCCC1)[C@H]1C[C@@H](O)CN1Cc1ccc(F)cc1 [Example 31]	–	–	53	–
O=C(NCc1c(F)cccc1F)[C@H]1CCCN1CC1CCCC1 [Example 241]	81.4	7.49	–	–
CC(=O)NCCN1CCC[C@@H]1C(=O)NC1C2CC3CC(C2)CC1C3 (stereo partly shown) [Example 129, 1-(2-Acetylamino-ethyl)pyrrolidine-2-carboxylic acid adamantan-2-ylamide]	–	–	72	–
CC(C)CN1[C@H]2CC[C@H](C2)[C@H]1C(=O)NC12CC3CC(CC(C3)C1)C2 (relative stereo) [Example 209]	100	8.72	–	–
O=C(NCc1ccccc1F)[C@H]1CCCN1Cc1ccccc1 [Example 212]	77.6	7.07	–	–
O=C(NC1CCc2ccccc21)[C@H]1CCCN1CC1CCCC1 (stereo partly shown) [Example 39]	–	–	100	> 9.00
O=C(NC1C2CC3CC(C2)CC1C3)[C@H]1COCCN1CC1CCCC1 (stereo partly shown) [Example 63]	–	–	100	9.00
O=C(NC1C2CC3CC(C2)CC1C3)[C@H]1CCCN1CCN1CCOCC1 (stereo partly shown) [Example 128]	–	–	100	–
O=C(NC1C2CC3CC(C2)CC1C3)[C@@H]1C[C@H](Oc2c(F)cc(F)cc2F)CN1 (stereo partly shown) [Example 363]	100	9.00	–	–
CC(C)CN1CCC[C@@H]1C(=O)N[C@@H]1CCCc2ccccc21 [Example 51]	–	–	100	9.00

SMILES	inhibition at 0.1 µM (0.1 μM compound) [%]	pKi	inhibition at 0.1 µM (compound at 0.1 μM) [%]	pKi (human 11b-hsd-1)
O=C(N[C@@H]1CCCc2ccccc21)[C@H]1CCCN1CC1CCCC1 [Example 299]	100	8.65	–	–
O=C(NC1C2CC3CC(C2)CC1C3)[C@H]1CCCN1CC1CCNCC1 (stereo partly shown) [Example 144]	–	–	87	–
COc1cccc(CNC(=O)[C@H]2CCCN2CC2CCCC2)c1 [Example 262]	76	7.22	–	–
CC(C)(C)OC(=O)N1CCN(CC2CCCC2)[C@@H](C(=O)NC23CC4CC(CC(C4)C2)C3)C1 [Example 161]	–	–	8.7	–
CN1CCC(CN2CCOC[C@@H]2C(=O)NC2C3CC4CC(C3)CC2C4)CC1 (stereo partly shown) [Example 61]	–	–	74	–
O=C(NC1C2CC3CC(C2)CC1C3)[C@H]1CCCN1CCN1CCCC1 (stereo partly shown) [Example 132]	–	–	92	–
CC(C)CN1[C@H]2CC[C@H](C2)[C@@H]1C(=O)NC12CC3CC(CC(C3)C1)C2 (relative stereo) [Example 210]	100	9.00	–	–
CN(C(=O)C1COCCN1CC1CCCCC1)C1CCCCC1 (stereo not shown) [Example 180]	–	–	72.1	7.49
CCCN1CCC[C@@H]1C(=O)NC1CCC(C)CC1 (stereo partly shown) [Example 106]	–	–	100	8.70
CC(C)CN1CCOC[C@@H]1C(=O)N[C@@H]1CCCc2ccccc21 [Example 316]	91	7.96	–	–
O=C(NCc1ccc(Cl)cc1)[C@H]1CCCN1Cc1ccc(Cl)cc1 [Example 325]	35.7	–	–	–
COc1ccccc1CNC(=O)[C@H]1CCCN1Cc1ccccc1 [Example 245]	84.6	7.77	–	–
N#Cc1ccccc1CN1CCOC[C@@H]1C(=O)N[C@@H]1CCc2ccccc21 [Example 305]	98.7	8.47	–	–
N#Cc1ccc(CN2CCC[C@@H]2C(=O)N[C@@H]2CCCc3ccccc32)cc1 [Example 297]	100	8.43	–	–
Cc1ncccc1O[C@@H]1CN[C@H](C(=O)NC2C3CC4CC(C3)CC2C4)C1 (stereo partly shown) [Example 359]	80.7	7.36	–	–
N#Cc1cccc(CN2CCOC[C@@H]2C(=O)NC2C3CC4CC(C3)CC2C4)c1 (stereo partly shown) [Example 275]	100	8.82	–	–
COc1ccccc1CNC(=O)[C@H]1CCCN1Cc1ccc(C#N)cc1 [Example 251]	83.5	7.33	–	–
O=C(N[C@@H]1CCCc2ccccc21)[C@H]1CCCN1Cc1ccccc1 [Example 295]	100	8.35	–	–
CCCN1CCC[C@@H]1C(=O)N[C@H]1C[C@@H]2CC[C@H]1C2 [Example 90]	–	–	100	–
CC(C)CN1CCOC[C@@H]1C(=O)NCc1ccc(F)cc1 [Example 34]	–	–	79	7.74
N#Cc1ccc(CN2CCCC(C(=O)NC3C4CC5CC(C4)CC3C5)C2)cc1 (stereo not shown) [Example 163]	–	–	100	–
CN(Cc1ccc(F)cc1)C(=O)[C@H]1COCCN1Cc1ccc(C#N)cc1 [Example 36]	–	–	90	7.67
N#Cc1ccc(CN2CCC[C@@H]2C(=O)NCc2ccccc2Cl)cc1 [Example 253]	100	7.62	–	–
CC1(C)CC(NC(=O)C2COCCN2Cc2cccc(OC(F)F)c2)CC(C)(C)C1 (stereo not shown) [Example 189]	–	–	100	8.96

SMILES	inhibition at 0.1 µM (0.1 μM compound) [%]	pKi	inhibition at 0.1 µM (compound at 0.1 μM) [%]	pKi (human 11b-hsd-1)
O=C(NC1C2CC3CC(C2)CC1C3)[C@H]1COCCN1CC1CC1 (stereo partly shown) [Example 279]	100	8.52	–	–
O=C(NCc1c(F)cccc1F)[C@H]1CCCN1Cc1ccc(Cl)cc1 [Example 244]	87.1	7.74	–	–
CN(C)CCCN1CCC[C@@H]1C(=O)NC1C2CC3CC(C2)CC1C3 (stereo partly shown) [Example 108]	–	–	100	8.05
O=C(NC1C2CC3CC(C2)CC1C3)[C@H]1CNC[C@H](c2ccccc2)C1 (stereo partly shown) [Example 346]	90.2	7.74	–	–
COc1ccccc1CNC(=O)[C@H]1CCCN1CC(C)C [Example 255]	100	8.07	–	–
O=C(NC1C2CC3CC(C2)CC1C3)[C@H]1NCC[C@@H]1C1CCCC1 (stereo partly shown) [Example 342]	97.5	8.00	–	–
CC(C)[C@H]1CCN[C@@H]1C(=O)NC1C2CC3CC(C2)CC1C3 (stereo partly shown) [Example 344]	90.7	7.96	–	–
CCN(CC)CCN1CCC[C@@H]1C(=O)NC1C2CC3CC(C2)CC1C3 (stereo partly shown) [Example 109]	–	–	77	–
CC(C)CN1C[C@H](O)C[C@H]1C(=O)NC12CC3CC(CC(C3)C1)C2 [Example 207]	92.1	7.96	–	–
N#Cc1ccc(CN2CCOC[C@@H]2C(=O)N[C@@H]2CCCc3ccccc32)cc1 [Example 315]	96.1	8.18	–	–
O=C(N[C@@H]1CCCc2ccccc21)[C@H]1COCCN1Cc1ccccc1 [Example 313]	97	8.31	–	–
O=C(NC1CCCCC1)[C@@H]1C[C@H](Oc2ccc(Cl)cc2)CN1 [Example 370]	88.7	8.00	–	–
C[C@H](N)CN1CCC[C@@H]1C(=O)NC1C2CC3CC(C2)CC1C3 (stereo partly shown) [Example 176]	–	–	100	–
CCOc1cccc(O[C@@H]2CN[C@H](C(=O)NC3C4CC5CC(C4)CC3C5)C2)c1 (stereo partly shown) [Example 358]	100	8.35	–	–
O=C(NC1C2CC3CC(C2)CC1C3)[C@@H]1C[C@H](Oc2ccccc2Cl)CN1 (stereo partly shown) [Example 360]	100	8.85	–	–
CC(C)CN1CCOC[C@@H]1C(=O)NCc1c(F)cccc1F [Example 32]	–	–	67	–
COc1cc(F)ccc1O[C@@H]1CN[C@H](C(=O)NC2C3CC4CC(C3)CC2C4)C1 (stereo partly shown) [Example 353]	100	8.31	–	–
CN(Cc1ccccc1Cl)C(=O)[C@H]1COCCN1CC1CCCC1 [Example 312]	95.3	7.85	–	–
O=C(NCc1ccc(F)cc1F)[C@H]1COCCN1Cc1ccccc1 [Example 280]	81.6	7.31	–	–
Cc1ccccc1CNC(=O)[C@H]1CCCN1CCC(F)(F)F [Example 264]	86.5	8.00	–	–
CN(C(=O)C1CCCCN1Cc1ccc(Cl)cc1)C1CCCCC1 (stereo not shown) [Example 193]	100	7.85	–	–
NC1C[C@H](C(=O)NC2C3CC4CC(C3)CC2C4)N(CC2CCCC2)C1 (stereo partly drawn) [Example 45, N-2-adamantyl-4-amino-1-(cyclopentylmethyl)-D-prolinamide]	–	–	81	–
O=C(N[C@H]1c2ccccc2C[C@H]1O)[C@H]1COCCN1CC1CCCC1 [Example 310]	92	7.53	–	–
